From a melting point compilation (Tetko et al.; mined from patent text by program, amines drawn as free bases though some values may be those of a salt)

Structure (SMILES)	melting point
COC(=O)CC(C(=O)c1cccc(OCc2ccccc2)c1)c1ccccc1 (racemic)	88 to 89 °C
COc1ccc2ccc(N3C(=O)c4ccccc4C3CC(CCC(C)C)=NO)nc2n1 (stereo not drawn)	200 °C
CC(=O)OCC1OC(n2c3ncccc3c3c4c(c5c6ccccc6[nH]c5c32)C(=O)N(C)C4=O)C(OC(C)=O)C(OC(C)=O)C1OC(C)=O (stereo not drawn)	302 to 304 °C
CC(=O)OC1CSC(Oc2cncc(-c3c(C)nn(C)c3C)c2)C(OC(C)=O)C1OC(C)=O (stereo not drawn)	166 °C
Cc1cc(C(C)(C)CBr)c(C)nn1	45 to 46 °C
CCOC(=O)CC[C@H](NC(=O)/C=C/C(=O)c1ccccc1)C(=O)OCC	83 to 85 °C
N#CCCCNC(=O)c1n[nH]cc1NC(=O)c1ccccn1	231 to 233 °C
CNC(=O)c1ccccc1Nc1nc(Nc2cc3c(cc2OC)CCN(CC(=O)N(C)C)CC3)ncc1Br	225 °C
Cc1nc(NC(=O)c2ccccc2)sc1C(=O)NNC(=O)c1ccccc1	258 to 260 °C
Cc1cc(-n2cnn(Cc3ccccc3)c2=O)sc1C(=O)NCc1cccnc1	180 to 181 °C
Cc1cc(-n2ccnc2)c2cccc(OCc3c(Cl)ccc(S(=O)(=O)N4CCCC4)c3Cl)c2n1	193 °C
CC(=O)OC1CSC(Oc2ccc3cc[nH]c3c2)C(OC(C)=O)C1OC(C)=O (stereo not drawn)	172 to 175 °C
O=CNC1Cc2ccc([N+](=O)[O-])cc2C1 (stereo not drawn)	91 to 92 °C
COC(=O)NCCCCn1c(=O)c2c(C)nc3cccc1n32	175 to 176 °C
Oc1cccc(C2CCCN2Cc2ccccc2)c1 (stereo not drawn)	113 to 115 °C
Clc1ccc(COCCOc2ccc(-c3ccccc3)cc2)cc1	85 to 87 °C
CC(C)(C)c1cc(Cl)c2c(c1)CNS(=O)(=O)O2	158 to 160 °C
N#Cc1cccc(-c2ccc(OC[C@@H](O)CCc3cccnc3)cc2)c1	74 to 75 °C
O=C1c2ccccc2C(=O)N1CC(=O)N1c2ccccc2N(Cc2ccccc2)C(=O)[C@H]2CCCC[C@H]21 (relative stereo)	241 to 242 °C

Structure (SMILES)	melting point
Fc1ccc(Sc2c[nH]c3ncccc23)cc1	183 to 184 °C
CC1(C)CC(OC(=O)c2ccccc2)CC(C)(C)N1C#N	150 to 152 °C
CC(C#Cc1cc2ccccc2s1)N(O)C(N)=O (stereo not drawn)	168 to 169 °C
CCOc1cc2c(cc1OCC)C(C(S)(C#N)CCC(=O)O)=NCC2 (stereo not drawn)	106 to 108 °C
CC(=O)NC(=N)NCC1CC2c3cccc4[nH]cc(c34)CC2N(C)C1 (stereo not drawn)	218 to 220 °C
COC(=O)c1ccc(Cn2c(=O)c(C)c3sc(C(=O)NCc4ccc(F)cc4)cn3c2=O)cc1	> 215 °C
CC(=O)NCc1ccc2c(c1)N(C1CCN(CCCc3ccc(F)cc3)CC1)CC2	128 to 130 °C
Cc1ccsc1C=C1C(=O)COC1=O	164 to 166 °C
O=c1nc(-c2cccc(CN3CCC(O)(c4ccc(Cl)cc4)CC3)n2)sc2ccccc12	151 to 153 °C
C=C(c1ccc(C(=O)O)s1)c1cc2cc(C(F)(F)F)ccc2n1S(=O)(=O)c1cccc(C(C)(C)C)c1	195 °C
c1cc(-c2ccc(N3CCCN(c4ccc(-c5ccsc5)cn4)CC3)nc2)cs1	234 to 236 °C
CN(C)NC(=O)c1nc([N+](=O)[O-])cn1C	154 °C
Nc1nc(-c2ccc(NC(=O)CN(Cc3ccccc3)S(=O)(=O)N3CCOCC3)cc2)cs1	193 to 194 °C
COc1ccnc(CCc2nc3cc(-c4ccc(S(=O)(=O)N(C)C)c(F)c4)cnc3[nH]2)c1	211 to 212 °C
Cc1cc2c(c3c1NC(=O)C(C)(C)C3)OC(C)(CN=[N+]=[N-])C2 (stereo not drawn)	169 to 170 °C
Cc1cc(CCCCCCCc2ccc(C3=NCCO3)cc2)on1	66 to 67 °C
CCCCSc1cc([N+](=O)[O-])cc(C(O)=NC)c1C(=O)O	106 to 108 °C
COc1ccc(Cn2cnc3c(Cl)nc(F)nc32)cc1	90 °C
COCCOC1CC(c2ccccc2)Oc2c1ccc1c2nc(C)n1C (stereo not drawn)	148 to 149 °C
